“And” between values parts separate entries of the source, which are not always exact repeats. Identical values can stand only once.

Data on four compounds can be found in patent US20250114362A1, “METHODS AND COMPOSITIONS FOR TREATMENT OF CUTANEOUS PROLIFERATIVE DISORDERS AND OTHER SKIN CONDITIONS” (ASYMMETRIC THERAPEUTICS, LLC, priority 2022, published 2025).

For one series, the system named is p21/Ki67. Nature of the series: MatTek PSE culture system, ratio of p21 to Ki67 mRNA levels. Particulars: after two days of treatment; treatment compositions of Table 5. In kind it is cell-based, human. Here is the method:
Ki67 is a replication marker for cells and the lower the value, the lower the replication rate. P21 is a protein which is a marker for the inhibition of cell proliferation. Thus, an increased ratio of P21/Ki67 indicates decreased cell replication. FIG. 9 illustrates this ratio under several conditions as described in Example 2.
(§1) Other markers of cell proliferation were also measured, namely (protein p21), and four markers of inflammatory signaling (IL17A, IL23A, TNF-α, and transforming growth factor beta (TGF-β)) in the MatTek PSE culture system after two days of treatment were also determined. Ki67 is a nuclear protein and a replication marker. The marker levels were determined by isolating total RNA by a Promega SV96 Total RNA Isolation Vacuum System (Promega, Madison, WI) according to the manufacturer's instructions. The total RNA was reverse transcribed using an ABI High Capacity cDNA reverse transcription kit (Applied Biosystems, Foster City, CA). Quantitative real-time polymerase chain reaction (qPCR) was performed with the use of a SYBR Green PCR Master Mix (Applied Biosystems) according to the manufacturer's protocol and amplified on a StepOnePlus Real-Time PCR System.
To highlight effects on cell proliferation, the ratio of p21 to Ki67 mRNA levels were calculated, with the results being shown in FIG. 9.

The subject of another series is TGF-β. The series can be described thus: MatTek PSE culture system, TGF-β mRNA by qPCR. It counts as cell-based, human. Particulars: after two days of treatment. On the procedure:
as §1
A general note: Quantitative PCR measures a nucleic acid by following its amplification.

Another series deals with Ki67. The series can be described thus: MatTek PSE culture system, Ki67 level by PCR. Particulars: for Relative Expression Levels, Ki67: after two days of treatment. It counts as cell-based, human. On the procedure: The level of Ki67 in the MatTek tissue culture system was also determined. Ki67 is a nuclear protein and a replication marker. The level of Ki67 was determined by polymerase chain reaction (PCR) analysis with standard protocols. The relative levels are normalized with respect to the measured Ki67 level of the control at Day 0, which is adjusted to 1.0.
as §1

Another series concerns IL17A. The series can be described thus: MatTek PSE culture system, IL17A mRNA by qPCR. In kind it is cell-based, human. As to conditions: after two days of treatment. On the procedure:
as §1

For series [1], the system named is MatTek human PSE culture system (SOR-300-FT). The series can be described thus: MatTek human PSE culture system, tissue layer thickness and histology.
Text: The thickness of each of the three tissue layers of skin was monitored and measured after two days and after six days of exposure to the treatment medium in a blinded fashion by a board-certified and nationally respected pathologist.
Another series deals with p21. Nature of the series: MatTek PSE culture system, p21 mRNA by qPCR. It counts as cell-based, human. As to conditions: after two days of treatment. On the procedure:
as §1

A further series has as its system IL23A. Nature of the series: MatTek PSE culture system, IL23A mRNA by qPCR. It counts as cell-based, human. Particulars: after two days of treatment. On the procedure: as §1
Another series relates to TNF-α. The series can be described thus: MatTek PSE culture system, TNF-α mRNA by qPCR. In kind it is cell-based, human. As to conditions: after two days of treatment. Here is the method:
as §1

For the next series, the system named is HaCaT cells. Nature of the series: M5 cocktail psoriasis-like HaCaT keratinocyte model, live and dead cell numbers by MultiTox-Glo Multiplex Cytotoxicity Assay. Here is the method: Immortalized human keratinocytes (HaCaT cells) purchased from AddexBio (San Diego, CA) were maintained in vitro in Dulbecco's modified Eagle's medium (DMEM) supplemented with 10% Fetal Bovine Serum (FBS) and antibiotics (100 U/mL penicillin and […] streptomycin) and cultured in an incubator with 5% CO2 at 37° C.
HaCaT cells were seeded at approximately 50% density (1×10^4 cells/well) and after 16 h the medium was replaced with 50 μL of pre-treatment medium containing different concentrations of allopurinol (0, 0.5, or 3 mM) or methotrexate (1 μM) and placed back into the incubator. Treatment media was prepared using standard media containing vehicle control (PBS) or M5 cocktail.
Other HaCaT cells were incubated in vitro for 72 hours in the presence of a M5 composition that also included 1.0 μM methotrexate, 0.5 mM allopurinol, 3.0 mM allopurinol, 0.5 mM oxypurinol, or 3.0 mM oxypurinol.
The number of live and dead cells were determined by the MultiTox-Glo Multiplex Cytotoxicity Assay (Promega, Madison WI) according to the manufacturer's protocol. A dilution series of cells was used to generate a standard curve for calculation of cell number in each well. The total number of cells was the sum of the live and dead cells.

The mark [2] stands for this setting: 1.0 μM, 0 hours (baseline), M5 cocktail, ± standard deviation.
Setting [3] is: 1.0 μM, 0 hours (baseline), relative to 9177 live cells at zero hours.
Setting [4] is: 1.0 μM, 48 hours, M5 cocktail, ± standard deviation.
The mark [5] stands for this setting: 1.0 μM, 48 hours, relative to 9177 live cells at zero hours.
The mark [6] stands for this setting: 1.0 μM, 72 hours, M5 cocktail, ± standard deviation.
[7] abbreviates: 1.0 μM, 72 hours, relative to 9177 live cells at zero hours.

`N[C@@H](CCC(=O)N[C@@H](CS)C(=O)NCC(=O)O)C(=O)O` [glutathione]: the “p21/Ki67 ratio (mRNA levels)” value in the series on p21/Ki67 is listed as “markedly increased”. For the same compound, the “Relative Expression Levels, TGF-β” value in the series with TGF-β (3 mM) is 0.77 ± 0.10. The “Relative Expression Levels, Ki67” value with Ki67 (3 mM) was 0.27 ± 0.01. For the same compound, in the series on IL17A (3 mM), the “Relative Expression Levels, IL17A” value worked out at 0.04 ± 0.02. In [1] (3 mM, 2 days), the “Layer Thickness, Dermis” value was found to be 0.3 mm; the “Layer Thickness, Epidermis” value was 0.2 mm; the “Layer Thickness, Stratum Corneum” value is on record as 0.15 mm. Further, in the series with p21 (3 mM), the “Relative Expression Levels, p21” value turned out to be 1.35 ± 0.06. The “Relative Expression Levels, IL23A” value in the series with IL23A (3 mM) was 0.79 ± 0.14. Moreover, in the series on TNF-α (3 mM), the “Relative Expression Levels, TNF-α” value came out at 0.29 ± 0.07.
On to `CN(Cc1cnc2nc(N)nc(N)c2n1)c1ccc(C(=O)N[C@@H](CCC(=O)O)C(=O)O)cc1` [methotrexate], for which, in the series with HaCaT cells (setting [2]), the “Cell Counts, 0 hours, Dead” value came to 801 ± 19 and the “Cell Counts, 0 hours, Live” value is 9177 ± 90. Also, in the series with HaCaT cells (setting [3]), the “Cell Ratios, 0 hours, Dead” value is reported as 0.087 and the “Cell Ratios, 0 hours, Total” value stood at 1.087. For the same compound, in the series on HaCaT cells (setting [4]), the “Cell Counts, 48 hours, Dead” value is given as 4826 ± 464 and the “Cell Counts, 48 hours, Total” value is on record as 11194 ± 545. Also, in the series on HaCaT cells (setting [5]), the “Cell Ratios, 48 hours, Dead” value amounted to 0.526 and the “Cell Ratios, 48 hours, Total” value is recorded as 1.220. Further, in the series with HaCaT cells (setting [6]), the “Cell Counts, 72 hours, Dead” value is given as 6300 ± 289 and the “Cell Counts, 72 hours, Total” value is recorded as 11587 ± 593. In the series on HaCaT cells (setting [7]), the “Cell Ratios, 72 hours, Dead” value is 0.69 and 0.686; the “Cell Ratios, 72 hours, Total” value is 1.26 and 1.263.
In the case of `O=c1[nH]c(=O)c2c[nH]nc2[nH]1` [oxypurinol], the “Cell Counts, 0 hours, Live” value with HaCaT cells (0.5 mM, 0 hours (baseline), M5 cocktail, ± standard deviation) is listed as 9177 ± 90; in the series on HaCaT cells (3.0 mM, 0 hours (baseline), M5 cocktail, ± standard deviation), 9177 ± 90. The “Cell Ratios, 0 hours, Total” value in the series with HaCaT cells (0.5 mM, 0 hours (baseline), relative to 9177 live cells at zero hours) amounted to 1.087; in the series on HaCaT cells (3.0 mM, 0 hours (baseline), relative to 9177 live cells at zero hours) it was 1.087. In addition, the “Cell Counts, 48 hours, Total” value in the series with HaCaT cells (0.5 mM, 48 hours, M5 cocktail, ± standard deviation) is 14960 ± 100; in the series on HaCaT cells (3.0 mM, 48 hours, M5 cocktail, ± standard deviation) it was 13069 ± 142. Further, the “Cell Ratios, 48 hours, Total” value in the series with HaCaT cells (0.5 mM, 48 hours, relative to 9177 live cells at zero hours) was 1.630; in the series with HaCaT cells (3.0 mM, 48 hours, relative to 9177 live cells at zero hours), 1.424. Besides, the “Cell Counts, 72 hours, Total” value with HaCaT cells (0.5 mM, 72 hours, M5 cocktail, ± standard deviation) worked out at 17036 ± 222; in the series with HaCaT cells (3.0 mM, 72 hours, M5 cocktail, ± standard deviation) it was 14228 ± 282. Moreover, the “Cell Ratios, 72 hours, Total” value in the series with HaCaT cells (0.5 mM, 72 hours, relative to 9177 live cells at zero hours) was 1.86 and 1.856; in the series with HaCaT cells (3.0 mM, 72 hours, relative to 9177 live cells at zero hours) it was 1.55. The “Cell Counts, 0 hours, Dead” value was 801 ± 19 in the series on HaCaT cells (human, 0 h, 0.5 mM) and 801 ± 19 in the series on HaCaT cells (human, 0 h, 3 mM). In addition, the “Cell Ratios, 0 hours, Dead” value in the series on HaCaT cells (human, 0 h, 0.5 mM) turned out to be 0.087; in the series with HaCaT cells (human, 0 h, 3 mM) it was 0.087. Also, the “Cell Counts, 48 hours, Dead” value with HaCaT cells (human, 48 h, 0.5 mM) amounted to 2937 ± 65; with HaCaT cells (human, 48 h, 3 mM) it was 2508 ± 124. In addition, the “Cell Ratios, 48 hours, Dead” value in the series with HaCaT cells (human, 48 h, 0.5 mM) was found to be 0.320; in the series with HaCaT cells (human, 48 h, 3 mM), 0.273. Moreover, the “Cell Counts, 72 hours, Dead” value is on record as 4761 ± 200 in the series on HaCaT cells (human, 72 h, 0.5 mM) and 3691 ± 244 in the series on HaCaT cells (human, 72 h, 3 mM).
With Vitamin D, the “p21/Ki67 ratio (mRNA levels)” value with p21/Ki67 is given as “markedly increased”. In addition, the “Relative Expression Levels, TGF-β” value with TGF-β (100 nM) worked out at 0.35 ± 0.09. For the same compound, the “Relative Ki67 Level” value in the series on Ki67 (100 nM, Day 6, normalized to control at Day 0 = 1.0) came to 1.99. In addition, the “Relative Expression Levels, Ki67” value with Ki67 (100 nM) is recorded as 0.34 ± 0.01. The “Relative Expression Levels, IL17A” value in the series with IL17A (100 nM) is reported as 0.06 ± 0.03. Also, in series [1] (100 nM, 2 days), the “Layer Thickness, Dermis” value was found to be 0.25 mm; the “Layer Thickness, Epidermis” value is on record as 0.15 mm; the “Layer Thickness, Stratum Corneum” value was 0.05 mm. Also, in series [1] (100 nM, 6 days), the “Layer Thickness, Dermis” value turned out to be 0.2 mm; the “Layer Thickness, Epidermis” value is given as 0.2 mm; the “Layer Thickness, Stratum Corneum” value amounted to 0.2 mm. Further, the “Relative Expression Levels, p21” value in the series with p21 (100 nM) is listed as 5.10 ± 0.70. Moreover, the “Relative Expression Levels, IL23A” value in the series on IL23A (100 nM) worked out at 0.45 ± 0.07. Besides, the “Relative Expression Levels, TNF-α” value in the series with TNF-α (100 nM) is 0.48 ± 0.17.
